Assay results reported in ChEMBL document CHEMBL4507265 (2021).

Assays:
[1] = biological target: Alpha-2C adrenergic receptor (Homo sapiens, UniProt P18825); test: GPCRScan assay: inhibition of Alpha2C; parameters: radioligand conc. used [nm] 0.5 – 1.0, parental cells stable MDCK
[2] = biological target: Mitotic checkpoint serine/threonine-protein kinase BUB1 (Homo sapiens) (UniProt O43683); conditions: Compound concentration 1000.0 nM
[3] = biological target: Alpha-2B adrenergic receptor (Homo sapiens, UniProt P18089); test: GPCRScan assay: inhibition of Alpha2B; parameters: radioligand conc. used [nm] 1.5 – 2.0, parental cells HEKT
[4] = biological target: L-type calcium channel, dihydropyridine site (Cav1.2 alpha-1C) (Homo sapiens, UniProt Q13936); test: Inhibition of Calcium Channel L-Type, Dihydropyridine at 10 µM in the Eurofins-Panlabs radioligand binding assay (Eurofins_assay_214600); parameters: ligand concentration 0.1 nM, non-specific ligand with concentration 1 µM Nitrendipine, incubation time 90 min, incubation temperature 25 °C; conditions: Wistar, rat, rat cerebral cortex preparation, probe [3H] Nitrendipine, 0.1 nM; compound concentration 10 uM; target entry is the homologue from another species
[5] = biological target: Glutamate receptor ionotropic, kainate (Rattus norvegicus) (UniProt P22756+Q01812+P42260+P42264+Q63273); test: Inhibition of Glutamate, Kainate at 10 µM in the Eurofins-Panlabs radioligand binding assay (Eurofins_assay_232700); conditions: Compound concentration 10.0 uM
Rattus norvegicus [6] = species: Rattus norvegicus; test: Inhibition of Glutamate, NMDA, Phencyclidine at 10 µM in the Eurofins-Panlabs radioligand binding assay (Eurofins_assay_233000); format: protein-complex assay; conditions: Compound concentration 10.0 uM
[7] = biological target: Melatonin receptor type 1A (Homo sapiens) (UniProt P48039); test: Inhibition of Melatonin MT1 at 10 µM in the Eurofins-Panlabs radioligand binding assay (Eurofins_assay_251600); parameters: ligand concentration 0.05 nM; conditions: Compound concentration 10.0 uM
[8] = biological target: Neuropeptide Y receptor type 1 (Homo sapiens) (UniProt P25929); test: Inhibition of Neuropeptide Y Y1 at 10 µM in the Eurofins-Panlabs radioligand binding assay (Eurofins_assay_257010); conditions: Compound concentration 10.0 uM
[9] = biological target: Neuropeptide Y receptor type 2 (Homo sapiens) (UniProt P49146); test: Inhibition of Neuropeptide Y Y2 at 10 µM in the Eurofins-Panlabs radioligand binding assay (Eurofins_assay_257110); conditions: Compound concentration 10.0 uM
[10] = biological target: Acetylcholine receptor subunit alpha (Homo sapiens) (UniProt P02708); test: Inhibition of Nicotinic Acetylcholine D1, Bungarotoxin at 10 µM in the Eurofins-Panlabs radioligand binding assay (Eurofins_assay_258700); conditions: Compound concentration 10.0 uM
[11] = biological target: Platelet-activating factor receptor (Homo sapiens) (UniProt P25105); test: Inhibition of Platelet Activating Factor (PAF) at 10 µM in the Eurofins-Panlabs radioligand binding assay (Eurofins_assay_265010); conditions: Compound concentration 10.0 uM
[12] = biological target: ATP-sensitive inward rectifier potassium channel 11 (Cricetulus griseus) (UniProt A0A3L7HHE1); test: Inhibition of Potassium Channel [KATP] at 10 µM in the Eurofins-Panlabs radioligand binding assay (Eurofins_assay_265600); conditions: Cricetinae; Compound concentration 10.0 uM
hERG (KCNH2) = hERG (KCNH2) (Homo sapiens, UniProt Q12809); test: Inhibition of Potassium Channel hERG at 10 µM in the Eurofins-Panlabs radioligand binding assay (Eurofins_assay_265900); parameters: ligand concentration 1.5 nM, non-specific ligand with concentration Astemizole, incubation time 60 min, incubation temperature 25 °C; conditions: HEK-293 cells that express recombinant human hERG, probe [3H] Astemizole, 1.5 nM, compound concentration 10 uM
[13] = biological target: Sigma non-opioid intracellular receptor 1 (Homo sapiens) (UniProt Q99720); test: Inhibition of Sigma 1 at 10 µM in the Eurofins-Panlabs radioligand binding assay (Eurofins_assay_278110); parameters: ligand concentration 8 nM; conditions: Compound concentration 10.0 uM
[14] = biological target: Sigma non-opioid intracellular receptor 1 (Homo sapiens) (UniProt Q99720); test: Sigma 1 Eurofins-Panlabs radioligand binding assay; parameters: ligand concentration 8 nM; conditions: Compound concentration 10.0 uM
[15] = biological target: voltage-gated sodium channel, site 2 (Rattus norvegicus, UniProt F1LQQ7+O08562+O88420+O88457+P04774+P04775+P08104+P15389+P15390+Q62968); test: Inhibition of Sodium Channel, Site 2 at 10 µM in the Eurofins-Panlabs radioligand binding assay (Eurofins_assay_279510); format: protein assay; parameters: ligand concentration 5 nM, non-specific ligand with concentration 100 µM Veratridine, incubation time 60 min, incubation temperature 37 °C; conditions: male, Wistar, rat whole brain (except cerebellum) membranes, probe [3H] Batrachotoxinin, 5 nM, compound concentration 10 uM
Rattus norvegicus [16] = species: Rattus norvegicus; test: Inhibition of Thyroid Hormone at 10 µM in the Eurofins-Panlabs radioligand binding assay (Eurofins_assay_285900); format: protein assay; conditions: Compound concentration 10.0 uM
[17] = biological target: Sodium-dependent dopamine transporter (Homo sapiens) (UniProt Q01959); conditions: Compound concentration 10.0 uM
[18] = biological target: Beta-2 adrenergic receptor (Homo sapiens) (UniProt P07550); conditions: Compound concentration 10.0 uM
[19] = biological target: Adenosine receptor A2a (Homo sapiens) (UniProt P29274); conditions: Compound concentration 10.0 uM
[20] = biological target: Beta-2 adrenergic receptor (Homo sapiens) (UniProt P07550); conditions: Compound concentration 10.0 uM; remark: listed apart in the source
[21] = biological target: B2 bradykinin receptor (Homo sapiens) (UniProt P30411); conditions: Compound concentration 10.0 uM
[22] = biological target: Cannabinoid receptor 1 (Homo sapiens) (UniProt P21554); conditions: Compound concentration 10.0 uM
[23] = biological target: D(1A) dopamine receptor (Homo sapiens) (UniProt P21728); conditions: Compound concentration 10.0 uM
[24] = biological target: D(3) dopamine receptor (Homo sapiens) (UniProt P35462); conditions: Compound concentration 10.0 uM
[25] = biological target: Endothelin receptor type B (Homo sapiens) (UniProt P24530); conditions: Compound concentration 10.0 uM
[26] = biological target: Estrogen receptor (Homo sapiens) (UniProt P03372); conditions: Compound concentration 10.0 uM
[27] = biological target: T1, Muscarinic acetylcholine receptor M2 (Homo sapiens) (UniProt P08172); conditions: Compound concentration 10.0 uM
T1 sequence (whole entry): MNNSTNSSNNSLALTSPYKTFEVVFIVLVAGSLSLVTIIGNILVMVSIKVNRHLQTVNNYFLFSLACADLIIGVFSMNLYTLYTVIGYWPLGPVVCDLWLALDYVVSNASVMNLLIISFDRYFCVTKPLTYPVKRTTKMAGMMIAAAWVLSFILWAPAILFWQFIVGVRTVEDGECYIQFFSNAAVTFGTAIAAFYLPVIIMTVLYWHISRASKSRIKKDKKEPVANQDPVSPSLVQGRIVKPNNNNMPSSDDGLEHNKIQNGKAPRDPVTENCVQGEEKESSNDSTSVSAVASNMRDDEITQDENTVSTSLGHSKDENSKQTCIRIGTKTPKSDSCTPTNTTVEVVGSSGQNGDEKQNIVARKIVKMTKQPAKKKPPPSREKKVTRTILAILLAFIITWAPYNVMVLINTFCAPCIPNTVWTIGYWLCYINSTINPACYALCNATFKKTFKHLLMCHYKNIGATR

[28] = biological target: Purinergic P2Y (Rattus norvegicus) (UniProt O35811+Q9EPX4+P49651+Q63371+P41232+O35881+Q6GUG4); conditions: Compound concentration 10.0 uM
[29] = biological target: Sodium-dependent dopamine transporter (Homo sapiens) (UniProt Q01959)

Chain of Sodium-dependent dopamine transporter (Homo sapiens) (Q01959 whole entry): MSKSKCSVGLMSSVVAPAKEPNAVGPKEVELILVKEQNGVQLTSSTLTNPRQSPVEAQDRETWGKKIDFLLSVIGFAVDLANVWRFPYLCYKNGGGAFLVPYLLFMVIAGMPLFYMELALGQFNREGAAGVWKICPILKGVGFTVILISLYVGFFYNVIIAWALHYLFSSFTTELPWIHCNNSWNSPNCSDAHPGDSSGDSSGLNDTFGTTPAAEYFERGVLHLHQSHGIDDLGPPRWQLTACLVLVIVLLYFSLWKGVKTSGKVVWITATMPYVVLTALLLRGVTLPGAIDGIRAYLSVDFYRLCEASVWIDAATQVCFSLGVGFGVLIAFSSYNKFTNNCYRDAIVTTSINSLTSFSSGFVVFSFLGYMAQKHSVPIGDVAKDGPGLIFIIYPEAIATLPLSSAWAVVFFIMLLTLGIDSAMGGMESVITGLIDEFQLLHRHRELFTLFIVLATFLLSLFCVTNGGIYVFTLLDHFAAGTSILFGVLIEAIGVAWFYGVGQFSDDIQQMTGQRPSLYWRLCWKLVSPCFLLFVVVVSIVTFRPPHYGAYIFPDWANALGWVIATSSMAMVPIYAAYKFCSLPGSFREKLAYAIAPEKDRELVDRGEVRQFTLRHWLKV
Chain of Sigma non-opioid intracellular receptor 1 (Homo sapiens) (Q99720 whole entry): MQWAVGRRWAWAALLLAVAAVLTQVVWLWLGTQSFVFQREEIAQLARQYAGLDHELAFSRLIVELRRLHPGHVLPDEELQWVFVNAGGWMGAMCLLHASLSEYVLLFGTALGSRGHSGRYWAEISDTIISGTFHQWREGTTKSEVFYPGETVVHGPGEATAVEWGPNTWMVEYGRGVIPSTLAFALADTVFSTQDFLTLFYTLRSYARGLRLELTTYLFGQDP
Chain of Alpha-2B adrenergic receptor (P18089 whole entry): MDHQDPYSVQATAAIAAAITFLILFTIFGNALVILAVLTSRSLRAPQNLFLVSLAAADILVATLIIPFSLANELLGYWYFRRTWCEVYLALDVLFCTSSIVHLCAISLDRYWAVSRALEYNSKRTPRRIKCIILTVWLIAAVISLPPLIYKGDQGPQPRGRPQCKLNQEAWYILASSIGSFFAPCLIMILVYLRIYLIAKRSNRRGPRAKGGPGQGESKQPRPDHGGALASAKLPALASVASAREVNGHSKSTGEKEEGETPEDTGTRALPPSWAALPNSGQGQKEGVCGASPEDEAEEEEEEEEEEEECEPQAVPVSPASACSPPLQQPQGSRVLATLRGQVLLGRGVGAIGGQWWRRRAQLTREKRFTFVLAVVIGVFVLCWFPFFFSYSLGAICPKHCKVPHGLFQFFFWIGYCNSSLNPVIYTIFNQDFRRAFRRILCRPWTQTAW
Chain of Beta-2 adrenergic receptor (Homo sapiens) (P07550 whole entry, looked up): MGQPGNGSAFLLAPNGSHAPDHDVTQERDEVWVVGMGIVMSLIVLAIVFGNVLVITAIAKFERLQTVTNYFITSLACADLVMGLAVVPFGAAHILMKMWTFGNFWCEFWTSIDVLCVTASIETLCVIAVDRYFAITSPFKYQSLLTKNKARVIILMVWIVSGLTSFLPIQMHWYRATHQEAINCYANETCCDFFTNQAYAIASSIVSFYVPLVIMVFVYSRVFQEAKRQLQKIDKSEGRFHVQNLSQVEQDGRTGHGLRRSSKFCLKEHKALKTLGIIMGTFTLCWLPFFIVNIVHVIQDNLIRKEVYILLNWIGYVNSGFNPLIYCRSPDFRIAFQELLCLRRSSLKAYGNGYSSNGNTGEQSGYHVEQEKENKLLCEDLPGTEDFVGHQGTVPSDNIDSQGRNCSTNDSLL
Chain of Endothelin receptor type B (Homo sapiens) (P24530 whole entry): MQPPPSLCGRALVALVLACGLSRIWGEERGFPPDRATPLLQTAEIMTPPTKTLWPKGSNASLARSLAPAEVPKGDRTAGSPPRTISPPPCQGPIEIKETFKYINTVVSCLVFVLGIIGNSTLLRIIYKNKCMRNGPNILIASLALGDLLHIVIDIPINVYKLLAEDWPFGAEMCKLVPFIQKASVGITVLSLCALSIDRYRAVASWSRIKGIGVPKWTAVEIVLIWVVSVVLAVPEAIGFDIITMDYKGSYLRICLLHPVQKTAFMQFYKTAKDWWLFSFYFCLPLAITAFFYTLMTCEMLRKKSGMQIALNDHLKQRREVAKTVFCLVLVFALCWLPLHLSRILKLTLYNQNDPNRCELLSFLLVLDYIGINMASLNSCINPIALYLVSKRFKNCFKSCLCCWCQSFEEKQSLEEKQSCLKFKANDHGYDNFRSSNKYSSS
Chain of ATP-sensitive inward rectifier potassium channel 11 (Cricetulus griseus) (A0A3L7HHE1 as listed by the source): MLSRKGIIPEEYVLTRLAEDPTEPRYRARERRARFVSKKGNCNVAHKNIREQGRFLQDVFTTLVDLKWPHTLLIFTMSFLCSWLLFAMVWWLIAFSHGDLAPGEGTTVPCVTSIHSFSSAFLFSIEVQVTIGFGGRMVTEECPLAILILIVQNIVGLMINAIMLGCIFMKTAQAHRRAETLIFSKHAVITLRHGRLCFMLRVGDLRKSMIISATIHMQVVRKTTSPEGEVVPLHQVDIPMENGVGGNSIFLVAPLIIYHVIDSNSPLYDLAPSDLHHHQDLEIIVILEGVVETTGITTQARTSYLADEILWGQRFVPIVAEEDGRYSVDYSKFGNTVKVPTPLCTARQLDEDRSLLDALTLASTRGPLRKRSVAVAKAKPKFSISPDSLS
Chain of D(1A) dopamine receptor (Homo sapiens) (P21728 whole entry): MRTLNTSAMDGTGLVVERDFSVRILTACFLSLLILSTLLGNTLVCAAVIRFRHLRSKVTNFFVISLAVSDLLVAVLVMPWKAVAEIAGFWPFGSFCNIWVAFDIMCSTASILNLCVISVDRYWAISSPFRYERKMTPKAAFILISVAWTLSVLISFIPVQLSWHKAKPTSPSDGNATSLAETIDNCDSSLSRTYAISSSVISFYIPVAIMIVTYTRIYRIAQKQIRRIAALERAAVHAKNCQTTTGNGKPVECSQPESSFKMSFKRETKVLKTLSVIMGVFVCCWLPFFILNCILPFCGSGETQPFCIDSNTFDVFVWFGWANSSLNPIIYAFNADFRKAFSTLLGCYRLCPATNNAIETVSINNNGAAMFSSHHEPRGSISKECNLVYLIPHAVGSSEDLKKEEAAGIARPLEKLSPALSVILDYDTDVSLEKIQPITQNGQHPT
Chain of Neuropeptide Y receptor type 1 (Homo sapiens) (P25929 whole entry): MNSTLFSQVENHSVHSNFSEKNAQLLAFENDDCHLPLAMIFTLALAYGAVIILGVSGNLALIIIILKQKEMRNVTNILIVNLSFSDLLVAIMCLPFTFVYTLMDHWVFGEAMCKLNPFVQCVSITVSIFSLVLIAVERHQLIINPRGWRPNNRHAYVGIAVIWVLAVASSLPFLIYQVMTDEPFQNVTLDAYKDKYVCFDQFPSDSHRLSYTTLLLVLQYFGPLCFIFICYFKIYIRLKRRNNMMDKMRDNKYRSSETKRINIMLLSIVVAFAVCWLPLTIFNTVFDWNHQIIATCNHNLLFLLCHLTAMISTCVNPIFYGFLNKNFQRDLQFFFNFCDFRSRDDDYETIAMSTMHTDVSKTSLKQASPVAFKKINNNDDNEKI
Chain of Melatonin receptor type 1A (Homo sapiens) (P48039 whole entry): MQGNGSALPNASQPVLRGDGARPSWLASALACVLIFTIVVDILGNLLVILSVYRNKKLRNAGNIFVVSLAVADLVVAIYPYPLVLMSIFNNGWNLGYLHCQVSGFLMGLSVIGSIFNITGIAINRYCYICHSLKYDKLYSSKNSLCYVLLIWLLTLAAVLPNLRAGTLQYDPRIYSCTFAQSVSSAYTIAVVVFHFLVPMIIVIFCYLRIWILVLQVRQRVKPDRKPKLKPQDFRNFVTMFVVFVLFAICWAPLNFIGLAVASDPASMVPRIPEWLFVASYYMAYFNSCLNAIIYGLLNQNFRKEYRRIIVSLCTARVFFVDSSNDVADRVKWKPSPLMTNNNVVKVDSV
Chain of Platelet-activating factor receptor (Homo sapiens) (P25105 whole entry): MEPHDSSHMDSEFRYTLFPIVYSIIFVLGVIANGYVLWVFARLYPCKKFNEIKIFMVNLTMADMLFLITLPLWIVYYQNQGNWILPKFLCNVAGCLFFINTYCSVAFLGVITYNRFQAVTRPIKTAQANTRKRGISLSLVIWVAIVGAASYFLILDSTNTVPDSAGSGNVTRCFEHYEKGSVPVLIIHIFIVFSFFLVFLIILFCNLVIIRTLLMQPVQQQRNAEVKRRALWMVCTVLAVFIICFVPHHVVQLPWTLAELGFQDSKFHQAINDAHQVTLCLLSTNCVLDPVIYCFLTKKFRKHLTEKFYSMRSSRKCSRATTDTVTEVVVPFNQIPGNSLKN
Chain of D(3) dopamine receptor (Homo sapiens) (P35462 whole entry): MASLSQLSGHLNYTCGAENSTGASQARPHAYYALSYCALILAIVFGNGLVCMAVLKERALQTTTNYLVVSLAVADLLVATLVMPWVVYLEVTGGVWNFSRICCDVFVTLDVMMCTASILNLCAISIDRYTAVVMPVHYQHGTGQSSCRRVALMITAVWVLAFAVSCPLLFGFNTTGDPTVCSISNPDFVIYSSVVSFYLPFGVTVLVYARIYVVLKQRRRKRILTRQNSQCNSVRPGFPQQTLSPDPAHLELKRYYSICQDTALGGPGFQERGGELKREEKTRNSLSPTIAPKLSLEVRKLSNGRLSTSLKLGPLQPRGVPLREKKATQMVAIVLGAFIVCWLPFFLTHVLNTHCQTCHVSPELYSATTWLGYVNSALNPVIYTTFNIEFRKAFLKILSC
Chain of Acetylcholine receptor subunit alpha (Homo sapiens) (P02708 whole entry): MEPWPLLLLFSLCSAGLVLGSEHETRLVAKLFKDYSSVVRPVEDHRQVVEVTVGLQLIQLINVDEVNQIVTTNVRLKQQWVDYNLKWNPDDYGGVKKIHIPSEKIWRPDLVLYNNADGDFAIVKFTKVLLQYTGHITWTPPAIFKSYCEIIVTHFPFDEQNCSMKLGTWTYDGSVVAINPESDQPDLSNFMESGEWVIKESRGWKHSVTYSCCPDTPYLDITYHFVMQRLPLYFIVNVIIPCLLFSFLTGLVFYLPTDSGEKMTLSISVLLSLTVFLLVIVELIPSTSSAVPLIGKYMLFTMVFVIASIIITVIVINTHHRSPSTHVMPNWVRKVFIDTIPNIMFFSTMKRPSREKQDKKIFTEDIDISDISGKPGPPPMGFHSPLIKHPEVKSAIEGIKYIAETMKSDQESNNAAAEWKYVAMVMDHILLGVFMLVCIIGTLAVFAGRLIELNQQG

`NS(=O)(=O)c1cc(NC(=O)C2(c3ccccc3Cl)CC2)ccc1Oc1cccc(Cl)c1` [BAY-207] gave a Ki [1] of 0.654 µM and a residual activity [2] of 95%.
`NS(=O)(=O)c1cc(NC(=O)Cc2ccccc2)ccc1Oc1cccc(Cl)c1` [BAY-1797] was tested, and the Ki ([3]; read-out: Ki) was 4.29 µM, the Ki ([3]; read-out: pKi (converted)) was 4.32 µM and the inhibition at 90 min, 10 µM [4] was 21% (not active). The inhibition [5] was 3%, the inhibition (Rattus norvegicus [6]) was -1% and the inhibition [7] was 13%. The inhibition [8] was 9%, the inhibition [9] was 8% and the inhibition [10] was -4%. For the same molecule, the inhibition [11] was -2%, the inhibition [12] was -9% and the inhibition at 60 min, 10 µM (hERG (KCNH2)) was 8% (not active). The inhibition [13] was 3%, the inhibition [14] was 19% and the inhibition at 60 min, 10 µM [15] was 57%. It also gave an inhibition (Rattus norvegicus [16]) of 2%, an inhibition [17] of 37% and an inhibition [18] of 18.9%. It also gave an inhibition [19] of 14%, an inhibition [20] of 2% and an inhibition [21] of 10%. For the same molecule, the inhibition [22] was 44%, the inhibition [23] was 11% and the inhibition [24] was 28%. The inhibition [25] was -1%, the inhibition [26] was 5% and the inhibition [27] was 4%. For the same molecule, the inhibition [28] was 14%, the inhibition ([29]; Compound concentration 3.0 uM) was 60% and the inhibition ([29]; Compound concentration 10.0 uM) was 81%.
